A short description of data set [1]: Stability determination in KH2PO4 buffer. The class given is physicochemical. The note with it: chemical stability, 0.05 M KH2PO4 buffer pH 6.0, room temperature (25 °C), HPLC peak areas, three parallel repeats. Here is the method: As it is easier to get enough amount of sansanmycin MX-2 and MX-4, the stability test of sansanmycin A, MX-2 and MX-4 was performed in KH2PO4 buffer (pH 6.0) at room temperature.
Fig. 8 Stability of sansanmycin A, MX-2 and MX-4. a HPLC analysis of sansanmycin A at indicated days in KH2PO4 buffer (pH 6.0) at room temperature. b The changes of the level of sansanmycin A, MX-2 and MX-4 over time. All samples were analyzed by HPLC and quantified according to the areas of peaks. blue line, sansanmycin MX-2; red line, sansanmycin MX-4; green line, sansanmycin A
To dissect the stability of sansanmycin A and other sansanmycin analogues, compounds were dissolved in 0.05 M KH2PO4 buffer (pH adjusted to 6.0 with NaOH). All samples were incubated at 25 °C for 9 days. Each sample has three parallel repeats. Residual analogues were analyzed by HPLC and quantified by the peak areas.

Another data set concerns M. tuberculosis H37Rv. Put plainly: MIC, microplate Alamar blue assay (MABA). The data set is classed as cell-based. Conditions: Mycobacterium tuberculosis, standard and susceptible strain.
For data set [2], the system named is B. subtilis CMCC (B) 63501. The data set is described as follows: MIC, microdilution test (CLSI). Conditions: Bacillus subtilis, 24 h, read-out: MIC B. subtilis CMCC (B) 63501.
For a further data set, the system named is E. coli ΔtolC mutant. The data set is described as follows: MIC, microdilution test (CLSI). Conditions: Mueller-Hinton broth, 10^6 cells/ml, 37 °C, 24 h, visual observation, triplicate.
The next data set deals with P. aeruginosa 11. The data set is described as follows: MIC, microdilution test (CLSI). The note with it: Pseudomonas aeruginosa, 11, 24 h, read-out: MIC P. aeruginosa 11.

This is an account of results in publication PMC4858918, “Improving the N-terminal diversity of sansanmycin through mutasynthesis” (Microbial Cell Factories, 2016).

≈ marks a conversion by molar mass, not a printed value.

Take `CSCC[C@H](NC(=O)N[C@@H](Cc1c[nH]c2ccccc12)C(=O)O)C(=O)NC(C(=O)N/C=C1/CC(O)C(n2ccc(=O)[nH]c2=O)O1)C(C)N(C)C(=O)[C@@H](N)Cc1cccc(O)c1` (some centres unmarked) [A, sansanmycin A]: the “compound remained after 6 days of incubation” value in data set [1] was “less than 10%”.
Regarding `CC[C@@H](CO)NCCN[C@@H](CC)CO` [Ethambutol], the minimal inhibitory concentration (MIC) against M. tuberculosis H37Rv was determined as 0.5 µg/mL (≈ 2.45 µM).
`NNC(=O)c1ccncc1` [Isoniazid] displayed an MIC in the data set on M. tuberculosis H37Rv of 0.125 µg/mL (≈ 0.911 µM).
Same read-out and setting: for `CO[C@H]1/C=C/O[C@@]2(C)Oc3c(C)c(O)c4c(O)c(c(/C=N/N5CCN(C)CC5)c(O)c4c3C2=O)NC(=O)/C(C)=C\C=C\[C@H](C)[C@H](O)[C@@H](C)[C@@H](O)[C@@H](C)[C@H](OC(C)=O)[C@@H]1C` [Rifampicin] the value was under 0.06 µg/mL.
In the case of `[H]/N=C(/N)N[C@H]1[C@H](O)[C@@H](O)[C@H](O[C@@H]2O[C@@H](C)[C@](O)(C=O)[C@H]2O[C@@H]2O[C@@H](CO)[C@H](O)[C@@H](O)[C@@H]2NC)[C@@H](N/C(N)=N\[H])[C@@H]1O` [Streptomycin], the MIC was found to be 0.25 µg/mL (≈ 0.43 µM) in the data set with M. tuberculosis H37Rv, 2 µg/mL (≈ 3.44 µM) in data set [2] and 4 µg/mL (≈ 6.88 µM) in the data set on P. aeruginosa 11. In addition, the “MIC E. coli ΔtolC” value in the data set on E. coli ΔtolC mutant was found to be 16 µg/mL (≈ 27.5 µM).
